This test relates to CD2F1 mice, L1210 leukemia ip, survival T/C. The test is described as follows: NCI In Vivo Anticancer Drug Screen. Data for tumor model L1210 Leukemia (intraperitoneal) in CD2F1 (CDF1) mice. As to conditions: higher = longer survival. The method, boiled down: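 In this screen, transplantable tumors were grown in mice given either the compound or its vehicle. Results were expressed as the treated measurement relative to the control measurement.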

The mark [1] stands for this setting: endpoint: mean survival time, dose: 100.0 mg/kg/injection, schedule: Q04DX003 (ip), vehicle: saline with Tween-80.
Setting [2] is: endpoint: mean survival time, dose: 200.0 mg/kg/injection, schedule: Q04DX003 (ip), vehicle: saline with Tween-80.
The mark [3] stands for this setting: endpoint: mean survival time, dose: 400.0 mg/kg/injection, schedule: Q04DX003 (ip), vehicle: saline with Tween-80.
Where [4] appears, read: endpoint: mean survival time, dose: 12.5 mg/kg/injection, schedule: Q01DX009 (ip), vehicle: saline with Tween-80.
Where [5] appears, read: endpoint: mean survival time, dose: 25.0 mg/kg/injection, schedule: Q01DX009 (ip), vehicle: saline with Tween-80.
Setting [6] is: endpoint: mean survival time, dose: 50.0 mg/kg/injection, schedule: Q01DX009 (ip), vehicle: saline with Tween-80.
Setting [7] is: endpoint: mean survival time, dose: 100.0 mg/kg/injection, schedule: Q01DX009 (ip), vehicle: saline with Tween-80.
Where [8] appears, read: endpoint: mean survival time, dose: 200.0 mg/kg/injection, schedule: Q01DX009 (ip), vehicle: saline with Tween-80.
Where [9] appears, read: endpoint: mean survival time, dose: 50.0 mg/kg/injection, schedule: Q04DX003 (ip), vehicle: saline with Tween-80.
The mark [10] stands for this setting: endpoint: mean survival time, dose: 75.0 mg/kg/injection, schedule: Q01DX001 (ip), vehicle: saline.
Where [11] appears, read: endpoint: mean survival time, dose: 150.0 mg/kg/injection, schedule: Q01DX001 (ip), vehicle: saline.
[12] abbreviates: endpoint: mean survival time, dose: 25.0 mg/kg/injection, schedule: Q04DX003 (ip), vehicle: saline with Tween-80.

Where “and” joins values, the source holds several entries; their conditions need not be identical. Equal entries are not always repeated. Inconclusive results and toxic doses are left out.

Regarding `C[C@]12CCCC[C@@H]1CC[C@@H]1[C@@H]2CC[C@]2(C)[C@@H](N(CCO)CCCO)CC[C@@H]12`, the T/C reads like this: (endpoint: mean survival time, dose: 100.0 mg/kg/injection, schedule: Q04DX003 (sc), vehicle: steriod suspending solution) 98 % of control; (endpoint: mean survival time, dose: 200.0 mg/kg/injection, schedule: Q04DX003 (sc), vehicle: steriod suspending solution) 91 % of control; (endpoint: mean survival time, dose: 400.0 mg/kg/injection, schedule: Q04DX003 (sc), vehicle: steriod suspending solution) 107 % of control.
Turning to `S=c1cn[nH]c2ccc(Br)cc12`, the T/C was 96 % of control (endpoint: mean survival time, dose: 100.0 mg/kg/injection, schedule: Q01DX001 (ip), vehicle: other); 103 % of control (endpoint: mean survival time, dose: 200.0 mg/kg/injection, schedule: Q01DX001 (ip), vehicle: other); 92 % of control (endpoint: mean survival time, dose: 400.0 mg/kg/injection, schedule: Q01DX001 (ip), vehicle: other).
`CCOC(=O)c1c(N)sc2c1CCN(Cc1ccccc1)C2`: the T/C is, setting by setting: under setting [1], 98 % of control; under setting [2], 93 % of control; under setting [3], 88 % of control.
On to `N#Cc1ccccc1C(C#N)c1ccc([N+](=O)[O-])cc1` (stereo not drawn), for which the T/C runs as follows: (endpoint: mean survival time, dose: 50.0 mg/kg/injection, schedule: Q04DX003 (ip), vehicle: DMSO) 93 % of control; (endpoint: mean survival time, dose: 100.0 mg/kg/injection, schedule: Q04DX003 (ip), vehicle: DMSO) 98 % of control; (endpoint: mean survival time, dose: 200.0 mg/kg/injection, schedule: Q04DX003 (ip), vehicle: DMSO) 93 % of control; (endpoint: mean survival time, dose: 400.0 mg/kg/injection, schedule: Q04DX003 (ip), vehicle: DMSO) 96 % of control.
For `COc1ccccc1C1N(C)CCCN1C`, the T/C is, setting by setting: (endpoint: mean survival time, dose: 6.25 mg/kg/injection, schedule: Q01DX009 (ip), vehicle: saline with Tween-80) 100 % of control; under setting [4], 102 % of control; under setting [5], 102 % of control.
Regarding `NCCCNCCSP(=O)(O)O`, the T/C under setting [4] was 106 % of control; the T/C (endpoint: mean survival time, dose: 12.5 mg/kg/injection, schedule: Q01DX009 (ip), vehicle: saline) was 95 % of control; the T/C under setting [5] is 101 % of control; the T/C (endpoint: mean survival time, dose: 25.0 mg/kg/injection, schedule: Q01DX009 (ip), vehicle: saline) was 106 % of control; the T/C under setting [6] was 102 % of control; the T/C (endpoint: mean survival time, dose: 50.0 mg/kg/injection, schedule: Q01DX009 (ip), vehicle: saline) is 101 % of control. Further, the T/C runs as follows: under setting [7], 101 % of control; (endpoint: mean survival time, dose: 100.0 mg/kg/injection, schedule: Q01DX009 (ip), vehicle: saline) 96 % of control; under setting [8], 104 % of control; (endpoint: mean survival time, dose: 200.0 mg/kg/injection, schedule: Q01DX009 (ip), vehicle: saline) 106 % of control; (endpoint: mean survival time, dose: 400.0 mg/kg/injection, schedule: Q01DX009 (ip), vehicle: saline) 93 % of control.
As for `O=C1CN(CCN2CC(=O)N(C(=O)c3ccccc3)C2=S)C(=S)N1Cc1ccccc1`, the T/C reads like this: under setting [6], 96 % of control; under setting [7], 96 % of control; under setting [8], 96 % of control.
With `O=C1C=CC(=O)C(SCCC(=O)O)=C1`, the T/C is 94 % of control under setting [9], 96 % of control under setting [1] and 111 % of control under setting [2].
Take `Nn1c2ccccc2c2ccccc21`: the T/C is 98 % of control under setting [10] and 106 % of control under setting [11].
On to `O=C1c2ccccc2C(=O)N1CN1CCC(CCCC2CCN(CN3C(=O)c4ccccc4C3=O)CC2)CC1`, for which the T/C is, setting by setting: under setting [12], 95 % of control; under setting [9], 95 % of control; under setting [1], 95 % of control.
With `CN1CCC(C#N)(c2ccccn2)CC1`, the T/C is 95 % of control (endpoint: mean survival time, dose: 5.0 mg/kg/injection, schedule: Q01DX009 (ip), vehicle: saline with Tween-80); 103 % of control (endpoint: mean survival time, dose: 5.0 mg/kg/injection, schedule: Q01DX009 (ip), vehicle: saline); 91 % of control (endpoint: mean survival time, dose: 10.0 mg/kg/injection, schedule: Q01DX009 (ip), vehicle: saline with Tween-80); 106 % of control (endpoint: mean survival time, dose: 10.0 mg/kg/injection, schedule: Q01DX009 (ip), vehicle: saline); 97 % of control (endpoint: mean survival time, dose: 20.0 mg/kg/injection, schedule: Q01DX009 (ip), vehicle: saline).
Consider `[Cl][Pt+2][Cl].[NH-]C1CCCCC1C1CCCCC1[NH-]` (stereo not drawn), for which the T/C by setting is: (endpoint: mean survival time, dose: 6.25 mg/kg/injection, schedule: Q04DX003 (ip), vehicle: distilled water + Tween-80) 123 % of control; (endpoint: mean survival time, dose: 25.0 mg/kg/injection, schedule: Q04DX003 (ip), vehicle: distilled water + Tween-80) 173 % of control; (endpoint: mean survival time, dose: 100.0 mg/kg/injection, schedule: Q04DX003 (ip), vehicle: distilled water + Tween-80) 86 % of control.
For the molecule `c1ccc2c(c1)Cc1c(NC3=NCCO3)cccc1-2`, the T/C is, setting by setting: under setting [1], 98 % of control; under setting [2], 109 % of control; under setting [3], 101 % of control.
In the case of `NNC(=O)NO`, the T/C by setting is: under setting [4], 166 % of control; under setting [5], 162 % of control; under setting [6], 103 % of control; under setting [7], 97 % of control; under setting [8], 87 % of control.
Turning to `COc1ccc2c(NCCCCCCCCNc3c4ccccc4nc4cc(OC)ccc34)c3ccccc3nc2c1`, the T/C was 116 % of control (endpoint: mean survival time, dose: 0.47 mg/kg/injection, schedule: Q01DX009 (ip), vehicle: distilled water + alcohol); 120 % of control and 112 % of control (endpoint: mean survival time, dose: 0.94 mg/kg/injection, schedule: Q01DX009 (ip), vehicle: distilled water + alcohol); 120 % of control (endpoint: mean survival time, dose: 1.87 mg/kg/injection, schedule: Q01DX009 (ip), vehicle: distilled water + alcohol); 113 % of control and 112 % of control (endpoint: mean survival time, dose: 1.88 mg/kg/injection, schedule: Q01DX009 (ip), vehicle: distilled water + alcohol); 120 % of control (endpoint: median survival time, dose: 0.5 mg/kg/injection, schedule: Q01DX009 (ip), vehicle: distilled water + alcohol); 118 % of control (endpoint: median survival time, dose: 1.0 mg/kg/injection, schedule: Q01DX009 (ip), vehicle: distilled water + alcohol). Besides, the T/C runs as follows: (endpoint: median survival time, dose: 2.0 mg/kg/injection, schedule: Q01DX009 (ip), vehicle: distilled water + alcohol) 121 % of control; (endpoint: median survival time, dose: 4.0 mg/kg/injection, schedule: Q01DX009 (ip), vehicle: distilled water + alcohol) 124 % of control.
In the case of `O=C(C[n+]1ccc2ccccc2c1)c1ccc2ccccc2c1`, the T/C (endpoint: mean survival time, dose: 12.5 mg/kg/injection, schedule: Q04DX003 (ip), vehicle: saline with Tween-80) was 92 % of control and the T/C under setting [12] was 86 % of control.
Turning to `CCCCCCCCCCCCCCCC(=O)NCC[N+](C)(C)C`, the T/C by setting is: under setting [10], 107 % of control; under setting [11], 104 % of control; (endpoint: mean survival time, dose: 300.0 mg/kg/injection, schedule: Q01DX001 (ip), vehicle: saline) 104 % of control.
Take `C[SeH]C.C[SeH]C.O.O=S(=O)(O)O.[Pt]`: the T/C reads like this: (endpoint: mean survival time, dose: 12.5 mg/kg/injection, schedule: Q04DX003 (ip), vehicle: other) 89 % of control; (endpoint: mean survival time, dose: 25.0 mg/kg/injection, schedule: Q04DX003 (ip), vehicle: other) 101 % of control; (endpoint: mean survival time, dose: 50.0 mg/kg/injection, schedule: Q04DX003 (ip), vehicle: other) 103 % of control; (endpoint: mean survival time, dose: 100.0 mg/kg/injection, schedule: Q04DX003 (ip), vehicle: other) 107 % of control.
As to `O=S(Nc1ccccc1)Nc1ccccc1`, the T/C reads like this: under setting [7], 95 % of control; under setting [1], 97 % of control; under setting [2], 94 % of control; under setting [3], 97 % of control.
In the case of `COc1cc(/C=N/n2c(-c3ccccc3)nc3ccccc3c2=O)cc(Br)c1O`, the T/C is 91 % of control (endpoint: mean survival time, dose: 50.0 mg/kg/injection, schedule: Q01DX009 (ip), vehicle: Klucel (hydroxypropylcellulose) (HPC)); 105 % of control (endpoint: mean survival time, dose: 100.0 mg/kg/injection, schedule: Q01DX009 (ip), vehicle: Klucel (hydroxypropylcellulose) (HPC)); 102 % of control (endpoint: mean survival time, dose: 200.0 mg/kg/injection, schedule: Q01DX009 (ip), vehicle: Klucel (hydroxypropylcellulose) (HPC)).
Turning to `C=Cn1cnc2c(N)ncnc21` (tested in a mixture with another compound), the T/C is 101 % of control (endpoint: mean survival time, dose: 12.5 mg/kg/injection, schedule: Q01DX005 (ip), vehicle: water); 104 % of control (endpoint: mean survival time, dose: 25.0 mg/kg/injection, schedule: Q01DX005 (ip), vehicle: water); 101 % of control (endpoint: mean survival time, dose: 50.0 mg/kg/injection, schedule: Q01DX005 (ip), vehicle: water); 101 % of control (endpoint: mean survival time, dose: 100.0 mg/kg/injection, schedule: Q01DX005 (ip), vehicle: water); 104 % of control (endpoint: mean survival time, dose: 200.0 mg/kg/injection, schedule: Q01DX005 (ip), vehicle: water).
